# Laboratory results reported in ChEMBL document CHEMBL3039007, “Structure-based identification of OATP1B1/3 inhibitors” (Mol Pharmacol, 2013).
# Assays:
# [1] = target: T1, Solute carrier organic anion transporter family member 1B1 (Homo sapiens, UniProt Q9Y6L6); settings: chinese hamster, cho, 10 µM
# T1 sequence (Q9Y6L6 whole entry): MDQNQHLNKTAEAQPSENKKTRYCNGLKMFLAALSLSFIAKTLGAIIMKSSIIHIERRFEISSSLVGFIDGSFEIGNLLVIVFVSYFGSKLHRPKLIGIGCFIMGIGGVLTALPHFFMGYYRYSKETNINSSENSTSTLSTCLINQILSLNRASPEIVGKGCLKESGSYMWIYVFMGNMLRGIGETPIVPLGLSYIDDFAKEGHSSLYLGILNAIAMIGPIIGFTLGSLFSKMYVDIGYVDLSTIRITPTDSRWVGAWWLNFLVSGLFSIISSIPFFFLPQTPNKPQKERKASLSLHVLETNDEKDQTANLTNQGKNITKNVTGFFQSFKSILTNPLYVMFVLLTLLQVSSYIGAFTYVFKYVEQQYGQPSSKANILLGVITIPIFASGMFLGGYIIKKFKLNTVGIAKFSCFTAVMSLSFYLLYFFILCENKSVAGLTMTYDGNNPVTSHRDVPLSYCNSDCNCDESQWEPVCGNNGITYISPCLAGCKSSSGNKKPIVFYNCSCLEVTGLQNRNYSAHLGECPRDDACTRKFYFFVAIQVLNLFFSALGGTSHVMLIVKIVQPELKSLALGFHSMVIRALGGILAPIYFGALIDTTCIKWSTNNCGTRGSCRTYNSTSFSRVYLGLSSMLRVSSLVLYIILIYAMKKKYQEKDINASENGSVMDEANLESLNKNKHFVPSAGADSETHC
# [2] = target: T2, Solute carrier organic anion transporter family member 1B3 (Homo sapiens, UniProt Q9NPD5); settings: chinese hamster, cho, 10 µM
# T2 sequence (Q9NPD5 whole entry): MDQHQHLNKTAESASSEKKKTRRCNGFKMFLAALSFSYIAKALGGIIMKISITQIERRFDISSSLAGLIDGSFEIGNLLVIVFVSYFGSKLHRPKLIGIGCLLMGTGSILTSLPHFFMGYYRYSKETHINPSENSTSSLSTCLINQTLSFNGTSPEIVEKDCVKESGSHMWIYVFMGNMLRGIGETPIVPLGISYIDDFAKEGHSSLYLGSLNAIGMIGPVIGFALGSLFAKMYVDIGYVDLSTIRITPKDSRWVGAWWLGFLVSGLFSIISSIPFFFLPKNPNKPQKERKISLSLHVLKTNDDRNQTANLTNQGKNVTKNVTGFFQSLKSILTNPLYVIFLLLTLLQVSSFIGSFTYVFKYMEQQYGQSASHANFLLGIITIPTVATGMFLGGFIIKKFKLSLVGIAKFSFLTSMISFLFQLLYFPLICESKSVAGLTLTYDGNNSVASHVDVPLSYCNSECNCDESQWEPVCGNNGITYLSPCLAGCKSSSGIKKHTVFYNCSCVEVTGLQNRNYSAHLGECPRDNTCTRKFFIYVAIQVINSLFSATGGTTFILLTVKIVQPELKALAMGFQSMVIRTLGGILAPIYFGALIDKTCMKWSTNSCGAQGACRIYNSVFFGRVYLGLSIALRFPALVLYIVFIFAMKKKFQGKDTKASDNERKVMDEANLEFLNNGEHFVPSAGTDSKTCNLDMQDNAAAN
SMILES,residual activity [1],residual activity [2]
c1ccc2c(c1)sc1ccccc12 [DIBENZOTHIOPHENE],114.7%,93.83%
CCCCOC(=O)c1ccccc1C(=O)OCCCC [DIBUTYL PHTHALATE],119.5%,124.6%
N#Cc1c(Cl)cccc1Cl [DICHLOBENIL],87.7%,97.91%
ClC(Cl)=C(c1ccc(Cl)cc1)c1ccc(Cl)cc1 [DICHLORODIPHENYLDICHLOROETHYLENE],94.96%,103.2%
COc1c2ccccc2nc2occc12 [DICTAMNINE],151.5%,118.6%
CCN(CC)CCOC(=O)C1(C2CCCCC2)CCCCC1.Cl [DICYCLOMINE HYDROCHLORIDE],106.9%,105.3%
CCN(CC)C(=O)N1CCN(C)CC1.O=C(O)CC(O)(CC(=O)O)C(=O)O [DIETHYLCARBAMAZINE CITRATE],95.54%,81.28%
C[C@@H]1CC[C@@]2(OC1)O[C@H]1[C@@H](O)[C@H]3[C@@H]4CC[C@H]5C[C@@H](O[C@@H]6O[C@H](CO)[C@H](O[C@@H]7O[C@H](CO)C(O)[C@H](O[C@@H]8OC[C@@H](O)[C@H](O)[C@H]8O)[C@H]7O[C@@H]7O[C@H](CO)[C@H](O)[C@H](O[C@@H]8O[C@H](CO)[C@@H](O)[C@H](O)[C@H]8O)[C@H]7O)[C@H](O)[C@H]6O)[C@H](O)C[C@]5(C)[C@H]4CC[C@]3(C)[C@H]1[C@@H]2C (some centres not stated) [DIGITONIN],76.09%,98.34%
C[C@H]1O[C@@H](O[C@H]2[C@@H](O)C[C@H](O[C@H]3[C@@H](O)C[C@H](O[C@H]4CC[C@@]5(C)[C@H](CC[C@@H]6[C@@H]5CC[C@]5(C)[C@@H](C7=CC(=O)OC7)CC[C@]65O)C4)O[C@@H]3C)O[C@@H]2C)C[C@H](O)[C@@H]1O [DIGITOXIN],56.48%,66.85%
C=C1CCC(=O)C(C)CCC2C1CC2(C)C (configuration not stated) [DIHYDROCARYOPHYLLEN-5-ONE],24.21%,39.09%
Cc1c(O)c(O)cc2c1CC=C1[C@@]2(C)CC[C@@]2(C)[C@@H]3C[C@](C)(C(=O)O)CC[C@]3(C)CC[C@]12C [DIHYDROCELASTROL],70.52%,40.35%
CN1C[C@H](C(=O)N[C@]2(C)O[C@@]3(O)[C@@H]4CCCN4C(=O)[C@H](Cc4ccccc4)N3C2=O)C[C@@H]2c3cccc4[nH]cc(c34)C[C@H]21.CS(=O)(=O)O [DIHYDROERGOTAMINE MESYLATE],27.06%,10.07%
"CCCCCC1C(=O)CCC1CC(=O)OC (configuration not stated) [DIHYDROJASMONIC ACID, METHYL ESTER]",109.5%,82.72%
CCCCCC1C(=O)CCC1CC(=O)O (configuration not stated) [DIHYDROJASMONIC ACID],113.7%,102.5%
COc1cc2c(cc1OC)[C@@H]1C(=O)c3ccc4c(c3O[C@@H]1CO2)CC(C(C)C)O4 (some centres not stated) [DIHYDROROTENONE],53.61%,63.71%
CN[C@@H]1[C@H](O[C@H]2[C@H](O[C@H]3[C@H](O)[C@@H](O)[C@H](NC(=N)N)[C@@H](O)[C@@H]3NC(=N)N)O[C@@H](C)[C@]2(O)CO)O[C@@H](CO)[C@H](O)[C@H]1O.CN[C@@H]1[C@H](O[C@H]2[C@H](O[C@H]3[C@H](O)[C@@H](O)[C@H](NC(=N)N)[C@@H](O)[C@@H]3NC(=N)N)O[C@@H](C)[C@]2(O)CO)O[C@@H](CO)[C@H](O)[C@H]1O.O=S(=O)(O)O.O=S(=O)(O)O.O=S(=O)(O)O [DIHYDROSTREPTOMYCIN SULFATE],78.79%,99.04%
Cc1cccc2c3c(ccc12)C1=C(C(=O)C3=O)[C@@H](C)CO1 [DIHYDROTANSHINONE I],111.4%,129.1%
CNC(=O)CSP(=S)(OC)OC [DIMETHOATE],106.9%,114.1%
CS(C)(=O)=O [DIMETHYL SULFONE],115.1%,102.7%

# More lines, now with the values ahead:
residual activity [1],residual activity [2],SMILES
88.15%,96.4%,NC[C@@H]1CC[C@@H](N)[C@@H](O[C@H]2[C@H](O)[C@@H](O[C@H]3O[C@H](CO)[C@@H](O)[C@H](N)[C@H]3O)[C@H](N)C[C@@H]2N)O1 [DIBEKACIN]
129.7%,118.4%,O=C(CC(=O)c1ccccc1)c1ccccc1 [DIBENZOYLMETHANE]
103.4%,94.35%,CCCCOc1cc(C(=O)NCCN(CC)CC)c2ccccc2n1.Cl [DIBUCAINE HYDROCHLORIDE]
110.6%,71.01%,O=C([O-])Cc1ccccc1Nc1c(Cl)cccc1Cl.[Na+] [DICLOFENAC SODIUM]
33.08%,19.32%,O=c1oc2ccccc2c(O)c1Cc1c(O)c2ccccc2oc1=O [DICUMAROL]
48.7%,61.94%,C/C=C(/C(=C/C)c1ccc(O)cc1)c1ccc(O)cc1 [DIENESTROL]
108.7%,107.2%,CCN(CC)C(=O)c1cccc(C)c1 [DIETHYLTOLUAMIDE]
201%,87.47%,O=C(O)c1cc(-c2ccc(F)cc2F)ccc1O [DIFLUNISAL]
117.5%,105.6%,COc1cc(OC)c(-c2c(OC)cc(OC)cc2OC)c(OC)c1 [DIFUCOL HEXAMETHYL ETHER]
74.37%,74.86%,CC(C)C1COc2cc3oc(=O)ccc3cc2O1 (configuration not stated) [DIHYDRO-OBLIQUIN]
98.02%,102.8%,COc1c(C(=O)O)ccc2c1CCC(C)(C)O2 [DIHYDRO-beta-TUBAIC ACID]
71.88%,77.17%,COC(=O)C[C@H]1C(C)(C)[C@@H](OC(C)=O)[C@@H]2CC3C4CC(=O)O[C@@H](c5ccoc5)[C@]4(C)CCC3[C@@]1(C)C2=O (some centres not stated) [DIHYDROFISSINOLIDE]
35.54%,62.45%,CC(=O)O[C@@H]1C[C@H]2C(C)(C)C(=O)CC[C@]2(C)[C@H]2CC[C@@]3(C)[C@H](c4ccoc4)OC(=O)[C@H]4O[C@]43[C@@]21C [DIHYDROGEDUNIN]
30.26%,58.7%,COc1c(CC(=O)c2cc3c(cc2O)OC(C)(C)C(O)C3)ccc2c1C=CC(C)(C)O2 (configuration not stated) [DIHYDROMUNDULETONE]
94.2%,85.01%,Cc1cc(=O)c2c(O)c3c(cc2o1)OCC(C)CC3 (configuration not stated) [DIHYDROPTAEROXYLIN]
73.61%,70.94%,COc1ccc(-c2c(O)c3c(OC)c4c(cc3oc2=O)OC(C)(C)CC4)cc1 [DIHYDROROBUSTIC ACID]
75.05%,104.1%,CC(=O)O[C@@H]1c2c(ccc3ccc(=O)oc23)OC(C)(C)[C@@H]1OC(=O)CC(C)C [DIHYDROSAMIDIN]
127.1%,116.8%,Cc1cc(=O)c2c(O)c3c(cc2o1)OC(C)(C)CC3 [DIHYDROSPATHELIACHROMENE]
26.71%,80.81%,COc1ccc([C@@H]2Sc3ccccc3N(CCN(C)C)C(=O)[C@@H]2OC(C)=O)cc1.Cl [DILTIAZEM HYDROCHLORIDE]
98.02%,106.4%,Cc1c(C(N)=O)cc([N+](=O)[O-])cc1[N+](=O)[O-] [DINITOLMIDE]
67.13%,93.34%,COc1ccc(-c2cc(=O)c3c(O)cc(O[C@@H]4O[C@H](CO[C@@H]5O[C@@H](C)[C@H](O)[C@@H](O)[C@H]5O)[C@@H](O)[C@H](O)[C@H]4O)cc3o2)cc1O [DIOSMIN]
97.17%,103.5%,COc1c(Cl)c(C)c2c(c1Cl)OC(=O)c1c(C)c(Cl)c(OC)c(Cl)c1O2 [DIPLOICIN METHYL ETHER]
